Earlier results, collected in US20050196379A1, “Combination therapies with L-FMAU for the treatment of hepatitis B virus infection” (priority 2002, published 2005).

What was measured:
[1] = test system: woodchuck hepatitis B virus (WHV); conditions: for drop of viral titers in serum: single drug, previous studies, same time frame (two weeks)
hepatitis B virus = conditions: in vivo

Row | Molecule | drop of viral titers in serum [1] | effect on viral replication and viral clearance ([1]; woodchuck model of HBV) | activity against hepatitis B virus in duck models (hepatitis B virus) | average decrease in CCC DNA ([1]; L-FMAU alone, Peek et al.) [fold] | number of infected hepatocytes ([1]; woodchuck model)
1 | β-2-hydroxymethyl-5-(5-fluorocytosin-1-yl)-1,3-oxathiolane [β-L-FTC] | about 56 fold | inhibit viral replication but not induce viral clearance | strong activity | – | –
2 | Cc1cn([C@H]2O[C@@H](CO)[C@H](O)[C@H]2F)c(=O)[nH]c1=O [L-FMAU, 1-(2′-deoxy-2′-fluoro-β-L-arabinofuranosyl)-thymine] | ~1,000 fold | – | – | 10 | decrease rapidly the number of infected hepatocytes
